Patent US6015838A, “Aqueous film-forming foam compositions” (3M Innovative Properties Company, priority 1996, dated 2000)
“Also recorded” adds a separate entry of the source.

Columns and labels:
[1] = Stability of esters to concentrated aqueous ammonium hydroxide; type: physicochemical; conditions: stirred 2 days (comparable conditions)
Excerpt: The acrylate and methacrylate esters from Examples D1-D11 were fully recoverable with essentially no degradation after being stirred with concentrated aqueous ammonium hydroxide for a period of 2 days.

[2] = literature; cited from earlier work
rats [3] = test: Acute LD50, one-time feeding study of rats; type: in vivo, rat
Protocol: Acute LD50 measurements for a one-time feeding study of rats were determined over a 21 day period for both the a-branched perfluorocarboxylate salt, C7 F15 CF(CF3)COO^- NH4^+, and its straight chain isomer, CF3 (CF2)8 COO^- NH4^+.

[4] = Thermal degradation in aqueous media; type: physicochemical
Protocol: The thermal degradation of an aqueous a-branched perfluoroalkylcarbonyl fluoride and the characterization of the products produced from the degradation were carried out using the following procedure. 8 g of C7 F15 CF(CF3)COF (made as in Example A4) was dispersed in deionized water and was refluxed for 2 hours. 5.7 g of volatile degradation products were then collected by azeotropic distillation using a Dean-Stark apparatus.
The thermal degradation of C7 F15 CF(CF3)COF (from Example A4) dispersed in water was also carried out by heating the aqueous mixture for several hours at approximately 80° C.

[5] = Emulsion polymerization of hexafluoropropylene and vinylidene fluoride with surfactant as emulsifier; conditions: 3500 ppm emulsifier, 78° C.
Excerpt: The following procedure was used to evaluate C7 F15 CF(CF3)COO^- NH4^+ (from Ex. M1) as an emulsifier to copolymerize hexafluoropropylene (HFP) and vinylidene fluoride.
A 1 gallon, vertically agitated stainless steel reactor with pressure and temperature controls was evacuated and twice purged with nitrogen. Using an isolated vacuum, a solution comprised of 2 g of ammonium persulfate (initiator) and 6 g of dipotassium phosphate dissolved in 2800 g of deionized water was introduced into the reactor. The remaining vacuum on the reactor was vented with nitrogen, and the solution was degassed twice under agitation using alternate vacuum and nitrogen purges. […]
The resulting latex polymer was drained from the reactor, and percent solids of the latex was determined to be 25% by weight as measured by drying 10 g of latex in a forced air oven for 16 hours at 105° C.
The reactor body was separated from the reactor head, and a visual inspection of the reactor was made to determine the amount of coagulated polymer in the reactor (the amount should be minimal in a good polymerization reaction). A qualitative rating was assessed, ranging from "none" to "little" to "some." […]
Particle size in the latex was determined using […] on a Coulter sub-micron particle size analyzer. […]

rats [6] = test: Monitoring of volatile degradation products exhaled by a dosed rat (uptake desiccator jar chamber); type: in vivo
Protocol: Additional biological testing of C7F15 CF(CF3)COO^- NH4^+ in rats was conducted using the following test apparatus. An uptake desiccator jar chamber was designed with top and bottom portions, the top portion equipped with an inlet port, an outlet port, oxygen monitor and pressure gage. An oxygen gas tank supplied oxygen into the inlet port, and the oxygen level in the chamber was maintained at a normal ambient level as measured by the oxygen monitor and pressure gage. The outlet port was connected in series with a carbon dioxide scrubber and particulate filter, which in turn was connected to a loop containing a stainless steel bellows pump operating at about 2 L/min. Most of the gas in the loop was recycled into the inlet port, but about 100 mL/min was directed through a secondary loop to a gas chromatograph equipped with a 0.5 mL gas sampling loop.
A rat dosed at 500 mg/kg was placed in the bottom portion of the chamber, the top portion was attached, and the assembled chamber was placed in an ice-filled pan to allow for the condensation of water. The oxygen flow was started, and the exhaust gases were monitored for the presence of CF3 CF=CF(C6 F13) and C7 F15 CFHCF3, aqueous degradation products of C7 F15 CF(CF3)COOH, using known standards of this olefin and hydride in the gas chromatograph. […] After 24 minutes, one slight chromatographic peak was noted, corresponding to the monohydride. After 92 minutes, the peak became noticeably larger and a second peak formed, corresponding to the olefin.

[7] = Thermogravimetric analysis of neat perfluorocarboxylate salts; type: physicochemical; conditions: neat salt; for onset temperature of decomposition / temperature for 50% loss / temperature for 90% loss: 10° C./min, nitrogen
Excerpt: Thermal degradation measurements were made on a series of neat perfluorocarboxylate salts, including several ax-branched open chain structures (Examples N2-N9), a primarily linear open chain structure (Example N10--Fluorad™ FC-143 Fluorochemical Surfactant, commercially available from 3M Company, St. Paul, Minn.), and a closed chain (i.e., cyclic) structure (Example N11--made by the electrochemical fluorination of benzoic acid and hydrolysis in the presence of KOH, as described in U.S. Pat. No. 2,567,011 (Diesslin et al.)).
The perfluorocarboxylate salts were tested using a Perkin-Elmer TGA 7 thermogravimetric analysis apparatus and a salt sample size of approximately 5 mg, a heating rate of 10° C./min, and a nitrogen gas flow rate of 40-45 mL/min. Using the TGA 7 software, the following temperatures were recorded: (1) the onset temperature of decomposition, (2) the temperature at which 50% of the sample weight was lost, and (3) the temperature at which 90% of the sample weight was lost.

[8] = Surface tension and critical micelle concentration (CMC) of aqueous surfactant solutions; type: physicochemical; conditions: Table 5; deionized water, at CMC
Excerpt: Critical Micelle Concentration (CMC): The critical micelle concentration is defined as the concentration at which further surface tension is no longer lowered with increasing levels of surfactant. […] Surface tension is then plotted vs. log concentration and the data points are connected. The resulting curve has a nearly horizontal flat portion at concentrations above the CMC and has a negative steep slope at concentrations below the CMC. The CMC is defined as the lowest surfactant concentration in the horizontal flat portion of the curve.
(§1) Then the critical micelle concentration (CMC) was determined for each surfactant.
as §1

[9] = Storage of 5% aqueous solution at room temperature; type: physicochemical
Protocol: The α-branched open chain ammonium salt compounds from Examples N3-N6 were dissolved in deionized water at a concentration of 5% by weight (0.5 g ammonium salt in 10 mL water) and were stored at room temperature.

Structure (SMILES): C=CC(=O)OCCOC(=O)C(F)(F)C(F)(F)C(F)(F)C(F)(F)C(F)(F)C(F)(F)C(F)(F)F [C7 F15 COOCH2 CH2 OCOCH=CH2]
- hydrolytic stability in concentrated aqueous ammonium hydroxide [1]: readily hydrolyzed

Structure (SMILES): O=C(O)C(F)(F)C(F)(F)C(F)(F)C(F)(F)C(F)(F)C(F)(F)C(F)(F)C(F)(F)C(F)(F)F [C9 F19 COO^- NH4^+, CF3 (CF2)8 COO^- NH4^+, reference compound]
- toxicity (in words) [2]: moderately toxic
- toxicity relative to the α-branched isomer (rats [3]; LD50 comparison): ca. 10 times
- acute toxicity (in words) (rats [3]; one-time feeding, rats): moderately toxic
- wasting syndrome (rats [3]; one-time feeding, rats): Wasting syndrome was observed

Structure (SMILES): O=C(F)C(F)(C(F)(F)F)C(F)(F)C(F)(F)C(F)(F)C(F)(F)C(F)(F)C(F)(F)C(F)(F)F (stereo not shown) [Example A1, C7 F15 CF(CF3)COF]
- degradation products (in words) ([4]; aqueous mixture heated several hours at approximately 80° C.): The same volatile products were formed
- olefin in degradation products ([4]; dispersed in deionized water, refluxed 2 hours, C6 F13 CF=CFCF3): 15%
- monohydride in degradation products ([4]; dispersed in deionized water, refluxed 2 hours, C7 F15 CFHCF3): 85%
- volatile degradation products collected ([4]; from 8 g, refluxed 2 hours in deionized water): 5.7 g

Structure (SMILES): O=C(O)C(F)(C(F)(F)F)C(F)(F)C(F)(F)C(F)(F)C(F)(F)C(F)(F)C(F)(F)C(F)(F)F (stereo not shown) [Example M1, C7 F15 CF(CF3)COOH]
- degradation products (in words) ([4]; aqueous solution, carried out in a similar way): the same monohydride and olefin

Structure (SMILES): O=C(O)C(F)(C(F)(F)F)C(F)(F)C(F)(F)C(F)(F)C(F)(F)C(F)(F)C(F)(F)C(F)(F)F (stereo not shown) [Example M14, C7 F15 CF(CF3)COO^- H4 N^+]
- Latex Stability [5]: 0
- post-exposure toxicity (death) or wasting syndrome (rats [6]; rat dosed at 500 mg/kg): no evidence of toxicity (death) or evidence of wasting syndrome
- time at which monohydride peak was noted in exhaust gases (rats [6]; rat dosed at 500 mg/kg): 24 min
- time at which second peak (olefin) formed in exhaust gases (rats [6]; rat dosed at 500 mg/kg): 92 min
- monohydride and olefin peaks in exhaust gases after 217 minutes (rats [6]; rat dosed at 500 mg/kg, 217 minutes): both peaks became significantly larger
- olefin or hydride in exhaust gases, initially (rats [6]; rat dosed at 500 mg/kg, initially): no olefin or hydride were detected
- metabolism and elimination (rats [6]; rat, in words): metabolized by the rat to volatile metabolites which were eliminated from the rat via transpiration
- onset temperature of decomposition [7]: 151 °C
- temperature for 50% loss [7]: 163 °C
- temperature for 90% loss [7]: 174 °C
- time after which rats began regaining weight (rats [3]; one-time feeding, rats): 3 days
- time of deaths from toxic doses (rats [3]; one-time feeding, rats): 2 to 3 days
- wasting syndrome (rats [3]; one-time feeding, rats): No wasting syndrome was noted
- acute toxicity (in words) (rats [3]; one-time feeding, rats, listed as C7 F15 CF(CF3)COO^- NH4^+): relatively low toxicity; also recorded: only slightly toxic
- Surf. Tens. (surface tension at the CMC) [8]: 16.5 dynes/cm

Structure (SMILES): O=C(O)C(F)(C(F)(F)F)C(F)(F)C(F)(F)C(F)(F)C(F)(F)C(F)(F)F (stereo not shown) [Example M21, C5 F11 CF(CF3)COO^- K^+]
- onset temperature of decomposition ([7]; listed as N9): 167 °C
- temperature for 50% loss ([7]; listed as N9): 178 °C
- temperature for 90% loss (stopped at 85% weight loss) ([7]; stopped at 85% weight loss as remaining salt, KF, is not volatile): 188 °C
- Surf. Tens. (surface tension at the CMC) [8]: 22.5 dynes/cm

Structure (SMILES): O=C(O)C(F)(F)C(F)(F)C(F)(F)C(F)(F)C(F)(F)C(F)(F)C(F)(F)F [FC-143, C7 F15 COO^- H4 N^+]
- degradation over 1 year (in words) [9]: no signs of degradation
- onset temperature of decomposition [7]: 173 °C
- temperature for 50% loss [7]: 188 °C
- temperature for 90% loss [7]: 202 °C
- Surf. Tens. (surface tension at the CMC) [8]: 21.5 dynes/cm
